Laboratory results published in US9408850B2, “Substituted indazole derivatives active as kinase inhibitors” (NERVIANO MEDICAL SCIENCES S.R.L., priority 2011, dated 2016).
Counter-ions that a name gives are not always drawn.

Key:
[1] = target: FLT3 cytoplasmic domain (GST fused protein) (Homo sapiens (Human), UniProt P36888); assay: Biochemical assay for inhibitors of FLT3 kinase activity; conditions: 2 nM pre activated enzyme, 254 microM ATP, 60 minutes at r.t.
Procedure: FLT3 cytoplasmic domain (aa 564-993end of the 993 aminoacid long full length sequence, accession number P36888 of UniProtKB/Swiss-Prot. database) was amplified by PCR starting from a testis cDNA library and then cloned into pVL vector for expression in insect cells through the baculovirus system. The GST-FLT3 cytoplasmic domain has been expressed in Sf21 cells infected for 72 hours at 27° C. The recombinant protein has been purified by affinity on GSH-sepharose and eluted with glutathione. A further purification step has been performed on heparine sepharose. […] General Principle-A specific peptidic substrate was trans-phosphorylated by the kinase in the presence of ATP traced with 33Pγ-ATP. At the end of the phosphorylation reaction, the not reacted ATP, cold and radioactive, was captured by an excess of dowex ion exchange resin that eventually settled by gravity to the bottom of the reaction plate. The supernatant was subsequently withdrawn and transferred into a counting plate that was then evaluated by β-counting. • ii. Dowex resin preparation-500 g of wet resin (SIGMA, custom prepared resin DOWEX 1×8 200-400 mesh, 2.5 Kg) were weighed out and diluted to 2 L in 150 mM sodium formate, pH 3.00. The resin was allowed to settle down overnight and then the supernatant was discarded. After three washes as above over a couple of days, the resin was allowed to settle and two volumes (with respect to the resin volume) were added of 150 mM sodium formate buffer. Biochemical Assay for Inhibitors of FLT3 Kinase Activity • i. Enzyme-The assay was performed using FLT3 cytoplasmic domain product and purified in house as GST fused protein. […] NO: 1). The peptide was purchased from American Peptide Company (Sunnyvale, Calif.). Biochemical Assay for Inhibitors of KIT Kinase Activity • i. Enzyme-The assay has been performed using KIT cytoplasmic domain product and purified in house as GST fused protein. […] NO: 2). The peptide was purchased from American Peptide Company (Sunnyvale, Calif.). Compound Testing • i. […] An automated station for serial dilutions (Biomek FX, Beckman) was used for producing 1:3 dilutions in 100% DMSO, from line A1 to A10, and for all the compounds in the column. […] The following dispensation into the plates plus 3 cycles of mixing, done by the robot itself, started the kinase reaction. At this point, the correct concentrations were restored for all the reagents. The robot incubated the plates for 60 minutes at r.t., and then stopped the reaction by pipetting 60 microL of dowex resin suspension into the reaction mix. In order to avoid tip clogging, wide bore tips were used to dispense the resin suspension. Three cycles of mixing were done immediately after the addition of the resin. Another mixing cycle was performed after all the plates were stopped, this time using normal tips: the plates were then allowed to rest for about one hour in order to allow resin sedimentation. […] Data Fitting-Data were analyzed by an internally customized version of the SW package “Assay Explorer” that provided sigmoidal fitting of the ten-dilutions curves for IC50 determination in the secondary assays/hit confirmation routines. Cell-Based Assays for Inhibitors of FLT3 Kinase Activity In vitro Cell Proliferation Assay for Inhibitors of FLT3 Kinase Activity

[2] = target: KIT cytoplasmic domain (GST fused protein) (Homo sapiens (Human), UniProt P10721); assay: Biochemical assay for inhibitors of KIT kinase activity; conditions: 4 nM pre activated enzyme, 4.4 microM ATP, 60 minutes at r.t.
Chain of KIT cytoplasmic domain (GST fused protein) (P10721 544-976): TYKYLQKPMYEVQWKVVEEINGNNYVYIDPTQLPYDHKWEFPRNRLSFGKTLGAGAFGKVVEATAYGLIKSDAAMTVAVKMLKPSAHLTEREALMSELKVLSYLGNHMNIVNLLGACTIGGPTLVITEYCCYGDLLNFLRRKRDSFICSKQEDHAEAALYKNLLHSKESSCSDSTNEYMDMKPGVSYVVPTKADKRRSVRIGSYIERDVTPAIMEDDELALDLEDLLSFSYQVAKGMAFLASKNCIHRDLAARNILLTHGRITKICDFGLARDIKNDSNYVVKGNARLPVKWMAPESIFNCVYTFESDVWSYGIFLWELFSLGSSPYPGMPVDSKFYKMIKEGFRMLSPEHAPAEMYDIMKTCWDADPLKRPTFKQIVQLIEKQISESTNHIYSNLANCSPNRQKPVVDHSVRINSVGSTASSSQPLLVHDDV
Procedure: KIT cytoplasmic domain (aa 544-976end of the 976 aminoacid long full length sequence, accession number P10721 of UniProtKB/Swiss-Prot database) was cloned into pVL vector for expression in insect cells through the baculovirus system. The GST-KIT cytoplasmic domain has been expressed in Sf21 cells infected for 66 hrs at 27° C. The recombinant protein has been purified by affinity on GSH-sepharose and eluted with glutathione. […] General Principle-A specific peptidic substrate was trans-phosphorylated by the kinase in the presence of ATP traced with 33Pγ-ATP. At the end of the phosphorylation reaction, the not reacted ATP, cold and radioactive, was captured by an excess of dowex ion exchange resin that eventually settled by gravity to the bottom of the reaction plate. The supernatant was subsequently withdrawn and transferred into a counting plate that was then evaluated by β-counting. • ii. Dowex resin preparation-500 g of wet resin (SIGMA, custom prepared resin DOWEX 1×8 200-400 mesh, 2.5 Kg) were weighed out and diluted to 2 L in 150 mM sodium formate, pH 3.00. The resin was allowed to settle down overnight and then the supernatant was discarded. After three washes as above over a couple of days, the resin was allowed to settle and two volumes (with respect to the resin volume) were added of 150 mM sodium formate buffer. Biochemical Assay for Inhibitors of FLT3 Kinase Activity • i. Enzyme-The assay was performed using FLT3 cytoplasmic domain product and purified in house as GST fused protein. […] The peptide was purchased from American Peptide Company (Sunnyvale, Calif.). Biochemical Assay for Inhibitors of KIT Kinase Activity • i. Enzyme-The assay has been performed using KIT cytoplasmic domain product and purified in house as GST fused protein. […] NO: 2). The peptide was purchased from American Peptide Company (Sunnyvale, Calif.). Compound Testing • i. […] An automated station for serial dilutions (Biomek FX, Beckman) was used for producing 1:3 dilutions in 100% DMSO, from line A1 to A10, and for all the compounds in the column. […] The following dispensation into the plates plus 3 cycles of mixing, done by the robot itself, started the kinase reaction. At this point, the correct concentrations were restored for all the reagents. The robot incubated the plates for 60 minutes at r.t., and then stopped the reaction by pipetting 60 microL of dowex resin suspension into the reaction mix. In order to avoid tip clogging, wide bore tips were used to dispense the resin suspension. Three cycles of mixing were done immediately after the addition of the resin. Another mixing cycle was performed after all the plates were stopped, this time using normal tips: the plates were then allowed to rest for about one hour in order to allow resin sedimentation. […] Data Fitting-Data were analyzed by an internally customized version of the SW package “Assay Explorer” that provided sigmoidal fitting of the ten-dilutions curves for IC50 determination in the secondary assays/hit confirmation routines. Cell-Based Assays for Inhibitors of FLT3 Kinase Activity In vitro Cell Proliferation Assay for Inhibitors of FLT3 Kinase Activity

Chain of FLT3 cytoplasmic domain (GST fused protein) (P36888 564-993): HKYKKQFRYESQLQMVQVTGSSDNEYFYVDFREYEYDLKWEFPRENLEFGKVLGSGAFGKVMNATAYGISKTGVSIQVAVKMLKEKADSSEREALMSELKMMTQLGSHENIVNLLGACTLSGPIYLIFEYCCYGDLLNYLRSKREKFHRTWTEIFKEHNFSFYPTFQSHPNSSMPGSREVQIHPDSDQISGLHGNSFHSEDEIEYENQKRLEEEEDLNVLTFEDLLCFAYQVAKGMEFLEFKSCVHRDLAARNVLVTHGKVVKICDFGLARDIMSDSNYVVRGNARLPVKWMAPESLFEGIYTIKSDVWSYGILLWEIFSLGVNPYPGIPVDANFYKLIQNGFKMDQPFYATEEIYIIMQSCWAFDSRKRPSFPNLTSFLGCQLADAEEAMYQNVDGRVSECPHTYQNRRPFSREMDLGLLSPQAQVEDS

SMILES	IC50 [1] [nM]	IC50 [2] [nM]
CN1CCN(c2ccc(C(=O)Nc3n[nH]c4cc(OCCOCc5cccc(C(F)(F)F)c5)ccc34)cc2)CC1 [Cpd. 34, 4-(4-Methyl-piperazin-1-yl)-N-{6-[2-(3-trifluoromethyl-benzyloxy)-ethoxy]-1H-indazol-3-yl}-benzamide]	56	58
O=C(Nc1n[nH]c2cc(OCCOCc3ccccc3)ccc12)c1ccc(NCCN2CCOCC2)cc1 [Cpd. 25, N-[6-(2-Benzyloxy-ethoxy)-1H-indazol-3-yl]-4-(2-morpholin-4-yl-ethylamino)-benzamide hydrochloride]	74	197
CC(C)(C)OC(=O)N1CCN(c2ccc(C(=O)Nc3n[nH]c4cc(OCCOCc5ccccc5)ccc34)cc2)CC1 [Cpd. 18, 4-{4-[6-(2-Benzyloxy-ethoxy)-1H-indazol-3-ylcarbamoyl]-phenyl}-piperazine-1-carboxylic acid tert-butyl ester]	414	1390
CN1CCN(c2ccc(C(=O)Nc3n[nH]c4cc(OC5CCN(Cc6ccccc6)CC5)ccc34)cc2)CC1 [Cpd. 6, N-[6-(1-Benzyl-piperidin-4-yloxy)-1H-indazol-3-yl]-4-(4-methyl-piperazin-1-yl)-benzamide]	248	6890
CN(C)C1CCN(c2ccc(C(=O)Nc3n[nH]c4cc(OCCOCc5ccccc5)ccc34)cc2)CC1 [Cpd. 15, N-[6-(2-Benzyloxy-ethoxy)-1H-indazol-3-yl]-4-(4-dimethylamino-piperidin-1-yl)-benzamide]	< 50	76
CN1CCC(Oc2ccc(C(=O)Nc3n[nH]c4cc(OCCOCc5ccccc5)ccc34)cc2)CC1 [Cpd. 22, N-[6-(2-Benzyloxy-ethoxy)-1H-indazol-3-yl]-4-(1-methyl-piperidin-4-yloxy)-benzamide]	56	55
CN1CCC(Nc2ccc(C(=O)Nc3n[nH]c4cc(OCCOCc5ccccc5)ccc34)cc2)CC1 [Cpd. 19, N-[6-(2-Benzyloxy-ethoxy)-1H-indazol-3-yl]-4-(1-methyl-piperidin-4-ylamino)-benzamide]	< 50	61
CN1CCN(c2ccc(C(=O)Nc3n[nH]c4cc(OCCOCc5ccc(C(F)(F)F)cc5)ccc34)cc2)CC1 [Cpd. 33, 4-(4-Methyl-piperazin-1-yl)-N-{6-[2-(4-trifluoromethyl-benzyloxy)-ethoxy]-1H-indazol-3-yl}-benzamide]	< 50	< 50
CN(C)CCN(C)c1ccc(C(=O)Nc2n[nH]c3cc(OCCOCc4ccccc4)ccc23)cc1 [Cpd. 16, N-[6-(2-Benzyloxy-ethoxy)-1H-indazol-3-yl]-4-[(2-dimethylamino-ethyl)-methyl-amino]-benzamide]	< 50	106
CN1CCN(c2ccc(C(=O)Nc3n[nH]c4cc(Oc5ccc(OCc6ccccc6)cc5)ccc34)cc2)CC1 [Cpd. 4, N-[6-(4-Benzyloxy-phenoxy)-1H-indazol-3-yl]-4-(4-methyl-piperazin-1-yl)-benzamide]	974	> 10000
CN(C)c1ccc(C(=O)Nc2n[nH]c3cc(OCc4ccccc4)ccc23)cc1 [Ref. Compound, reference compound]	3180	> 10000
C[N+]1([O-])CCN(c2ccc(C(=O)Nc3n[nH]c4cc(OCCOCc5ccccc5)ccc34)cc2)CC1 [Cpd. 14, N-[6-(2-Benzyloxy-ethoxy)-1H-indazol-3-yl]-4-(4-methyl-4-oxy-piperazin-1-yl)-benzamide]	< 50	118
CN1CCN(c2ccc(C(=O)Nc3n[nH]c4cc(OCc5cccc(Oc6ccccc6)c5)ccc34)cc2)CC1 [Cpd. 5, 4-(4-Methyl-piperazin-1-yl)-N-[6-(3-phenoxy-benzyloxy)-1H-indazol-3-yl]-benzamide]	1170	2620
C[N+]1([O-])CCN(c2ccc(C(=O)Nc3n[nH]c4cc(OCCOCc5ccc(C(F)(F)F)cc5)ccc34)cc2)CC1 [Cpd. 42, 4-(4-Methyl-4-oxy-piperazin-1-yl)-N-{6-[2-(4-trifluoromethyl-benzyloxy)-ethoxy]-1H-indazol-3-yl}-benzamide hydrochloride]	< 50	55
CN1CCN(c2ccc(C(=O)Nc3n[nH]c4cc(OCCOCc5ccccc5)ccc34)c(F)c2)CC1 [Cpd. 38, N-[6-(2-Benzyloxy-ethoxy)-1H-indazol-3-yl]-2-fluoro-4-(4-methyl-piperazin-1-yl)-benzamide]	539	613
CN1CCN(c2ccc(C(=O)Nc3n[nH]c4cc(OCc5ccccc5)ccc34)cc2)CC1 [Cpd. 1, N-(6-Benzyloxy-1H-indazol-3-yl)-4-(4-methyl-piperazin-1-yl)-benzamide]	428	2800
CN1CCN(c2ccc(C(=O)Nc3n[nH]c4cc(OCCOCc5ccc(F)cc5)ccc34)cc2)CC1 [Cpd. 32, N-{6-[2-(4-Fluoro-benzyloxy)-ethoxy]-1H-indazol-3-yl}-4-(4-methyl-piperazin-1-yl)-benzamide]	< 50	< 50
CN1CCC(CNc2ccc(C(=O)Nc3n[nH]c4cc(OCCOCc5ccccc5)ccc34)cc2)CC1 [Cpd. 27, N-[6-(2-Benzyloxy-ethoxy)-1H-indazol-3-yl]-4-[(1-methyl-piperidin-4-ylmethyl)-amino]-benzamide]	< 50	91
CN1CCN(c2ccc(C(=O)Nc3n[nH]c4cc(OCC#Cc5ccccc5)ccc34)cc2)CC1 [Cpd. 7, 4-(4-Methyl-piperazin-1-yl)-N-[6-(3-phenyl-prop-2-ynyloxy)-1H-indazol-3-yl]-benzamide]	249	1500
CN(C)CCCN(C)c1ccc(C(=O)Nc2n[nH]c3cc(OCCOCc4ccccc4)ccc23)cc1 [Cpd. 17, N-[6-(2-Benzyloxy-ethoxy)-1H-indazol-3-yl]-4-[(3-dimethylamino-propyl)-methyl-amino]-benzamide]	62	146
CN1CCN(c2ccc(C(=O)Nc3n[nH]c4cc(Oc5cccc(F)c5)ccc34)cc2)CC1 [Cpd. 3, N-[6-(3-Fluoro-phenoxy)-1H-indazol-3-yl]-4-(4-methyl-piperazin-1-yl)-benzamide]	639	564
